In US20250277186A1, “COMPOUND MICROBIAL INOCULUM WITH BACTERIOSTATIC EFFECT AND USE THEREOF IN PREPARATION OF YOGURT” (priority 2023, published 2025):

Experiments:
[1] = test system: Lactiplantibacillus plantarum FMBL L23036 CNN; assay: Antibiotic sensitivity, drug-sensitive paper; on Antibiotic sensitivity of Lactiplantibacillus plantarum FMBL L23036 CNN: key: R: resistant; I: intermediately sensitive; S: sensitive; type: cell-based; conditions: for Antibiotic sensitivity of Lactiplantibacillus plantarum FMBL L23036 CNN: drug-sensitive paper (content per Table 3), MRS solid medium, anaerobic 37° C. 24 h; for Resistant / sensitive, Lactiplantibacillus plantarum FMBL L23036 CNN: text statement for the two strains
Method: (§1) After two strains were cultured anaerobically at 37° C. at a 2% inoculation rate for 24 h, 100 μL (about 1×10^7 cfu/mL) of a bacteria solution of each strain was coated on the surface of an MRS solid medium, and then drug-sensitive paper (purchased from Oxoid Company, UK) was lightly pressed tightly in the middle of each of the mediums; and after anaerobic culture was carried out at 37° C. for 24 h, the bacteriostatic condition of the drug-sensitive paper was observed, and the diameter of the inhibition zone was measured.

[2] = test system: Lacticaseibacillus rhamnosus FMBL L23004 CNN; assay: Antibiotic sensitivity, drug-sensitive paper; on Antibiotic sensitivity of Lacticaseibacillus rhamnosus FMBL L23004 CNN: key: R: resistant; I: intermediately sensitive; S: sensitive; type: cell-based; conditions: for Antibiotic sensitivity of Lacticaseibacillus rhamnosus FMBL L23004 CNN: drug-sensitive paper (content per Table 3), MRS solid medium, anaerobic 37° C. 24 h; for Resistant / sensitive, Lacticaseibacillus rhamnosus FMBL L23004 CNN: text statement for the two strains
Method: as §1

Compound | Antibiotic sensitivity of Lactiplantibacillus plantarum FMBL L23036 CNN [1] | Resistant / sensitive, Lactiplantibacillus plantarum FMBL L23036 CNN [1] | Antibiotic sensitivity of Lacticaseibacillus rhamnosus FMBL L23004 CNN [2] | Resistant / sensitive, Lacticaseibacillus rhamnosus FMBL L23004 CNN [2]
CC1(C)S[C@@H]2[C@H](NC(=O)[C@H](N)c3ccccc3)C(=O)N2[C@H]1C(=O)O [Ampicillin] | S | sensitive | S | sensitive
Cc1onc(-c2ccccc2)c1C(=O)N[C@@H]1C(=O)N2[C@@H]1SC(C)(C)[C@@H]2C(=O)O [Oxacillin] | R | – | I | –
CN(C)c1ccc(O)c2c1C[C@H]1C[C@H]3[C@H](N(C)C)C(O)=C(C(N)=O)C(=O)[C@@]3(O)C(O)=C1C2=O [Minocycline] | S | – | S | –
NCC[C@H](O)C(=O)N[C@@H]1C[C@H](N)[C@@H](O[C@H]2O[C@H](CN)[C@@H](O)[C@H](O)[C@H]2O)[C@H](O)[C@H]1O[C@H]1O[C@H](CO)[C@@H](O)[C@H](N)[C@H]1O [Amikacin] | R | resistant | R | resistant
[H]/N=C(/N)N[C@H]1[C@H](O)[C@@H](O)[C@H](O[C@@H]2O[C@@H](C)[C@](O)(C=O)[C@H]2O[C@@H]2O[C@@H](CO)[C@H](O)[C@@H](O)[C@@H]2NC)[C@@H](N/C(N)=N\[H])[C@@H]1O [Streptomycin] | R | – | I | –
O=C(Cc1cccs1)N[C@@H]1C(=O)N2C(C(=O)[O-])=C(C[n+]3ccccc3)CS[C@H]12 [Cephaloridine] | S | sensitive | S | sensitive
Gentamicin | R | resistant | R | resistant
CCC[C@@H]1C[C@@H](C(=O)N[C@@H]([C@H]2O[C@H](SC)[C@H](O)[C@@H](O)[C@H]2O)[C@H](C)Cl)N(C)C1 [Clindamycin] | S | – | S | –
Teicoplanin | R | resistant | R | resistant
CC1(C)S[C@@H]2[C@H](NC(=O)[C@H](N)c3ccc(O)cc3)C(=O)N2[C@H]1C(=O)O [Amoxicillin] | S | sensitive | S | sensitive
O=C(N[C@H](CO)[C@H](O)c1ccc([N+](=O)[O-])cc1)C(Cl)Cl [Chloramphenicol] | S | sensitive | S | sensitive
O=C(O)c1cn(C2CC2)c2cc(N3CCNCC3)c(F)cc2c1=O [Ciprofloxacin] | R | resistant | R | resistant
NC[C@H]1O[C@H](O[C@H]2[C@H](O)[C@@H](O[C@H]3O[C@H](CO)[C@@H](O)[C@H](N)[C@H]3O)[C@H](N)C[C@@H]2N)[C@H](O)[C@@H](O)[C@@H]1O [Kanamycin] | R | – | R | –
CCn1cc(C(=O)O)c(=O)c2cc(F)c(N3CCNCC3)cc21 [Norfloxacin] | R | resistant | R | resistant
CC[C@H]1OC(=O)[C@H](C)[C@@H](O[C@H]2C[C@@](C)(OC)[C@@H](O)[C@H](C)O2)[C@H](C)[C@@H](O[C@@H]2O[C@H](C)C[C@H](N(C)C)[C@H]2O)[C@](C)(O)C[C@@H](C)C(=O)[C@H](C)[C@@H](O)[C@]1(C)O [Erythromycin] | I | – | S | –
CN[C@H](CC(C)C)C(=O)N[C@H]1C(=O)N[C@@H](CC(N)=O)C(=O)N[C@H]2C(=O)N[C@H]3C(=O)N[C@H](C(=O)N[C@H](C(=O)O)c4cc(O)cc(O)c4-c4cc3ccc4O)[C@H](O)c3ccc(c(Cl)c3)Oc3cc2cc(c3O[C@@H]2O[C@H](CO)[C@@H](O)[C@H](O)[C@H]2O[C@H]2C[C@](C)(N)[C@H](O)[C@H](C)O2)Oc2ccc(cc2Cl)[C@H]1O [Vancomycin] | R | resistant | R | resistant
CN(C)[C@@H]1C(O)=C(C(N)=O)C(=O)[C@@]2(O)C(O)=C3C(=O)c4c(O)cccc4[C@@](C)(O)[C@H]3C[C@@H]12 [Tetracycline] | S | – | S | –
Polymyxin | R | resistant | R | resistant
Penicillin | S | sensitive | S | sensitive
CO[C@H]1/C=C/O[C@@]2(C)Oc3c(C)c(O)c4c(O)c(c(/C=N/N5CCN(C)CC5)c(O)c4c3C2=O)NC(=O)/C(C)=C\C=C\[C@H](C)[C@H](O)[C@@H](C)[C@@H](O)[C@@H](C)[C@H](OC(C)=O)[C@@H]1C [Rifampicin] | S | – | S | –
